What was measured:
[1] = test system: T-Rex 293 cell line SC3 cells having increased expression of androgen receptor protein due to exposure to doxycycline; assay: Cellular growth inhibition, T-Rex 293 SC3 cells with doxycycline (increased androgen receptor expression), CellTiter-Glo; format: cell-based; conditions: T-Rex 293 SC3 cells with 10 ng/mL doxycycline (increased androgen receptor expression), 72 hours, CellTiter-Glo 2.0
In short: (§1)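 Doxycycline (10 ng/mL) was either included or omitted to toggle wild-type androgen receptor expression in SC3 cells, a T-Rex 293 clone, grown in stripped-serum, phenol red-free medium. After 72 hours with compound, viable cells were quantified by CellTiter-Glo 2.0.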

[2] = test system: T-Rex 293 cell line SC3 cells lacking increased expression of androgen receptor protein; assay: Cellular growth inhibition, T-Rex 293 SC3 cells without doxycycline (no increased androgen receptor expression), CellTiter-Glo; format: cell-based; conditions: T-Rex 293 SC3 cells not exposed to doxycycline (no increased androgen receptor expression), 72 hours
In short: as §1

VCaP cells = assay: Cellular growth inhibition assay for VCaP cells, CellTiter-Glo; format: cell-based, human; conditions: 72 hours
In short: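 GI50 values come from four-parameter curve fits of luminescence data normalized to a zero baseline. Compound, in medium with 0.5% DMSO, was added one day after plating and left for 72 h before CellTiter-Glo 2.0 addition.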

T47D cells = assay: Cellular Growth Inhibition Assay for T47D Cells (CellTiter-Glo); format: cell-based, human; conditions: 72 hours
In short: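 GI50 values derive from four-parameter regression of CellTiter-Glo 2.0 luminescence, using zero luminescence as baseline. Human breast cancer T47D cells (3000/well; DMEM, 10% FBS, 0.2 units/mL insulin) were exposed for 72 h to compound dilutions at 0.5% DMSO, with dosing starting 24 h after seeding.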

Structure (SMILES)	GI50 [1] [nM]	GI50 [2] [nM]	GI50 (VCaP cells; Homo sapiens) [nM]	GI50 (T47D cells; Homo sapiens) [nM]	GI50 (VCaP cells) [nM]	GI50 (T47D cells) [nM]
CCS(=O)(=O)Nc1ccc(Oc2cccc(OC3CN(c4ncc(C(=O)N[C@H]5C(C)(C)[C@H](Oc6ccc(C#N)c(Cl)c6)C5(C)C)cn4)C3)c2)c(-c2cn(C)c(=O)c3[nH]ccc23)c1 [Compound I-30]	< 500	< 500	< 500	< 500		
CCS(=O)(=O)Nc1ccc(Oc2cccc(C3CC(C4CCN(c5ncc(C(=O)N[C@H]6C(C)(C)[C@H](Oc7ccc(C#N)c(Cl)c7)C6(C)C)cn5)CC4)C3)c2)c(-c2cn(C)c(=O)c3[nH]ccc23)c1 (stereo partly shown) [Compound I-157]	< 500	> 3000	< 500	< 500		
CCS(=O)(=O)Nc1ccc(Oc2cccc(COC3CCN(c4ncc(C(=O)N[C@H]5C(C)(C)[C@H](Oc6ccc(C#N)c(Cl)c6)C5(C)C)cn4)CC3)c2F)c(-c2cn(C)c(=O)c3[nH]ccc23)c1 [Compound I-164]	< 500	> 3000	< 500	< 500		
Cn1cc(-c2cc(C(C)(C)O)ccc2Oc2ccc(N3CC(CC4CCN(c5cnc(C(=O)N[C@H]6C(C)(C)[C@H](Oc7ccc(C#N)c(Cl)c7)C6(C)C)cn5)CC4)C3)cn2)c2cc[nH]c2c1=O [Compound I-346]	< 500	> 3000	< 500	< 500		
Cn1cc(-c2cc(C(C)(C)O)ccc2-n2cc(N3CC(CC4CCN(c5ncc(C(=O)NC6C(C)(C)C(Oc7ccc(C#N)c(Cl)c7)C6(C)C)cn5)CC4)C3)ccc2=O)c2cc[nH]c2c1=O (stereo not shown) [Compound I-344, N-[3-(3-chloro-4-cyano-phenoxy)-2,2,4,4-tetramethyl-cyclobutyl]-2-[4-[[1-[1-[4-(1-hydroxy-1-methyl-ethyl)-2-(6-methyl-7-oxo-1H-pyrrolo [2,3-c]pyridin-4-yl)phenyl]-6-oxo-3-pyridyl]azetidin-3-yl]methyl]-1-piperidyl]pyrimidine-5-carboxamide]	> 3000	> 3000	> 3000	500 to 1500		
Cn1cc(-c2cc(C(C)(C)O)ccc2Oc2cccc(N3CC(CN4CCN(c5ncc(C(=O)N[C@H]6C(C)(C)[C@H](Oc7ccc(C#N)c(Cl)c7)C6(C)C)cn5)C5(CC5)C4)C3)c2F)c2cc[nH]c2c1=O [Compound I-273]	< 500	500 to 1500			< 500	< 500
CCS(=O)(=O)c1ccc(Oc2ccc(OC3CC4(C3)CN(c3ncc(C(=O)N[C@H]5C(C)(C)[C@H](Oc6ccc(C#N)c(Cl)c6)C5(C)C)cn3)C4)c(F)c2)c(-c2cn(C)c(=O)c3[nH]ccc23)c1 [Compound I-276]	< 500	< 500	< 500	< 500		
Cn1cc(-c2cc(C(C)(C)O)ccc2Oc2ccc(N3CC(CC4CCN(c5ncc(C(=O)N[C@H]6C(C)(C)[C@H](Oc7ccc(C#N)c(Cl)c7)C6(C)C)cn5)CC4)C3)cn2)c2cc[nH]c2c1=O [Compound I-345, N-[3-(3-chloro-4-cyano-phenoxy)-2,2,4,4-tetramethyl-cyclobutyl]-2-[4-[[1-[6-[4-(1-hydroxy-1-methyl-ethyl)-2-(6-methyl-7-oxo-1H-pyrrolo [2,3-c]pyridin-4-yl)phenoxy]-3-pyridyl]azetidin-3-yl]methyl]-1-piperidyl]pyrimidine-5-carboxamide]	< 500	> 3000	< 500	< 500		
Cn1cc(-c2cc(C(C)(C)O)ccc2Oc2ccc(CCCC3CCCN(c4ncc(C(=O)N[C@H]5C(C)(C)[C@H](Oc6ccc(C#N)c(Cl)c6)C5(C)C)cn4)C3)cc2)c2cc[nH]c2c1=O (stereo partly shown) [Compound I-306]	< 500	> 3000			500 to 1500	> 3000
Cn1cc(-c2cc(C(C)(C)O)ccc2OC2CC3CC2CC3OCC2CCN(c3ncc(C(=O)N[C@H]4C(C)(C)[C@H](Oc5ccc(C#N)c(Cl)c5)C4(C)C)cn3)CC2)c2cc[nH]c2c1=O (stereo partly shown) [Compound I-296]	< 500	> 3000			< 500	> 3000
Cn1cc(-c2cc(C(C)(C)O)ccc2OC2CCC(N3CC(OC4CCN(c5ncc(C(=O)NC6C(C)(C)C(Oc7ccc(C#N)c(Cl)c7)C6(C)C)cn5)CC4)C3)CC2)c2cc[nH]c2c1=O (stereo not shown) [Compound I-289]	< 500	1500 to 3000			500 to 1500	1500 to 3000
Cn1cc(-c2cc(C(C)(C)O)ccc2Oc2ccc(CCC3CCN(c4cnc(C(=O)N[C@H]5C(C)(C)[C@H](Oc6ccc(C#N)c(Cl)c6)C5(C)C)cn4)CC3)nc2)c2cc[nH]c2c1=O [Compound I-341]	< 500	< 500			< 500	< 500
CCS(=O)(=O)Nc1ccc(Oc2cccc(C3CN(C4CCN(c5ncc(C(=O)N[C@H]6C(C)(C)[C@H](Oc7ccc(C#N)c(Cl)c7)C6(C)C)cn5)CC4)C3)c2)c(-c2cn(C)c(=O)c3[nH]ccc23)c1 [Compound I-76]	< 500	1500 to 3000	< 500	< 500		
Cn1cc(-c2cc(C(C)(C)O)ccc2Oc2ccc(CCC3CCCN(c4ncc(C(=O)N[C@H]5C(C)(C)[C@H](Oc6ccc(C#N)c(Cl)c6)C5(C)C)cn4)C3)cc2)c2cc[nH]c2c1=O (stereo partly shown) [Compound I-301]	< 500	> 3000			500 to 1500	< 500
Cn1cc(-c2cc(C(C)(C)O)ccc2Oc2cccc(N3CC(CN4CC5CC4CN5c4ncc(C(=O)N[C@H]5C(C)(C)[C@H](Oc6ccc(C#N)c(Cl)c6)C5(C)C)cn4)C3)c2F)c2cc[nH]c2c1=O (stereo partly shown) [Compound I-241]	< 500	< 500			< 500	< 500
CCS(=O)(=O)Nc1ccc(Oc2cccc(N3CC(OC4CCN(c5ncc(C(=O)N[C@H]6C(C)(C)[C@H](Oc7ccc(C#N)c(Cl)c7)C6(C)C)cn5)CC4)C3)c2)c(-c2cn(C)c(=O)c3[nH]ccc23)c1 [Compound I-181]	< 500	> 3000			< 500	< 500
Cn1cc(-c2cc(C(C)(C)O)ccc2Oc2ccc(C3(NC4CCN(c5ncc(C(=O)N[C@H]6C(C)(C)[C@H](Oc7ccc(C#N)c(Cl)c7)C6(C)C)cn5)CC4)COC3)cc2)c2cc[nH]c2c1=O [Compound I-246]	< 500	< 500			< 500	500 to 1500
CC(C)c1ccc(Oc2cccc(N3CC(N4CCN(c5ncc(C(=O)N[C@H]6C(C)(C)[C@H](Oc7ccc(C#N)c(Cl)c7)C6(C)C)cn5)CC4)C3)c2F)c(-c2cn(C)c(=O)c3[nH]ccc23)c1 [Compound I-123]	< 500	> 3000	> 3000	500 to 1500		
CCS(=O)(=O)c1ccc(Oc2ccc(CN3CC4(C3)CN(c3ncc(C(=O)N[C@H]5C(C)(C)[C@H](Oc6ccc(C#N)c(Cl)c6)C5(C)C)cn3)C4)c(F)c2)c(-c2cn(C)c(=O)c3[nH]ccc23)c1 [Compound I-271]	< 500	< 500	< 500	< 500		
CCS(=O)(=O)c1ccc(Oc2ccc(CN3CCC4(CCN(c5ncc(C(=O)N[C@H]6C(C)(C)[C@H](Oc7ccc(C#N)c(Cl)c7)C6(C)C)cn5)C4)C3)c(F)c2)c(-c2cn(C)c(=O)c3[nH]ccc23)c1 (stereo partly shown) [Compound I-272]	< 500	< 500	< 500	< 500		
CCS(=O)(=O)c1ccc(Oc2ccc(N3CC(C4CCN(c5ncc(C(=O)N[C@H]6C(C)(C)[C@H](Oc7ccc(C#N)c(Cl)c7)C6(C)C)cn5)CC4)C3)cc2)c(-c2cn(C)c(=O)c3[nH]ccc23)c1 [Compound I-291]	< 500	< 500			< 500	< 500
CCS(=O)(=O)c1ccc(OC(CCCCOC2CCN(c3ncc(C(=O)N[C@H]4C(C)(C)[C@H](Oc5ccc(C#N)c(Cl)c5)C4(C)C)cn3)CC2)C2CC2)c(-c2cn(C)c(=O)c3[nH]ccc23)c1 (stereo partly shown) [Compound I-234]	< 500	< 500			< 500	< 500
Cn1cc(-c2cc(C(C)(C)O)ccc2Oc2ccc(CCC3CCN(c4cnc(C(=O)N[C@H]5C(C)(C)[C@H](Oc6ccc(C#N)c(Cl)c6)C5(C)C)cn4)CC3)cc2)c2cc[nH]c2c1=O [Compound I-335]	> 3000	> 3000			500 to 1500	< 500
Cn1cc(-c2cc(C(C)(C)O)ccc2Oc2cccc(N3CC(N(C4CC4)C4CCN(c5ncc(C(=O)N[C@H]6C(C)(C)[C@H](Oc7ccc(C#N)c(Cl)c7)C6(C)C)cn5)CC4)C3)c2F)c2cc[nH]c2c1=O [Compound I-240]	< 500	> 3000			500 to 1500	< 500
Cn1cc(-c2cc(C(C)(C)O)ccc2OC2CCC(N3CC(OC4CCN(c5ncc(C(=O)NC6C(C)(C)C(Oc7ccc(C#N)c(Cl)c7)C6(C)C)cn5)CC4)C3)C2)c2cc[nH]c2c1=O (stereo not shown) [Compound I-266, N-[3-(3-chloro-4-cyano-phenoxy)-2,2,4,4-tetramethyl-cyclobutyl]-2-[4-[1-[3-[4-(1-hydroxy-1-methyl-ethyl)-2-(6-methyl-7-oxo-1H-pyrrolo[2,3-c]pyridin-4-yl)phenoxy]cyclopentyl]azetidin-3-yl]oxy-1-piperidyl]pyrimidine-5-carboxamide]	< 500	1500 to 3000	< 500	500 to 1500		
